Usually AC50 stands for the concentration giving half of the maximal activity seen.

Test [1] has as its target T1, Coelenterazine h 2-monooxygenase (Renilla reniformis, UniProt P27652).
T1 sequence (P27652 whole entry): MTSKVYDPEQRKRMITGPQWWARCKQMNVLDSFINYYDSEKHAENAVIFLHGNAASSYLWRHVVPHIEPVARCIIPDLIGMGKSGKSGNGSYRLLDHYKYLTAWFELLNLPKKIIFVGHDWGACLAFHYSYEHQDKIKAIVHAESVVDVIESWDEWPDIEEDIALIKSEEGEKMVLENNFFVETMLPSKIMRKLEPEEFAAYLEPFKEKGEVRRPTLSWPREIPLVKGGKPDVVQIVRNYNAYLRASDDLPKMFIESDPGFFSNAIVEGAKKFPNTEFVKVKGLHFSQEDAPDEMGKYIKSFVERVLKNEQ
Description: GSK_PKIS: Inhibition of Sea Pansy Luciferase (Data from PubChem: AID 652015) [NIH NCATS]

For test [2], the target named is Luciferin 4-monooxygenase (Photinus pyralis, UniProt P08659).
Luciferin 4-monooxygenase, sequence (P08659 whole entry): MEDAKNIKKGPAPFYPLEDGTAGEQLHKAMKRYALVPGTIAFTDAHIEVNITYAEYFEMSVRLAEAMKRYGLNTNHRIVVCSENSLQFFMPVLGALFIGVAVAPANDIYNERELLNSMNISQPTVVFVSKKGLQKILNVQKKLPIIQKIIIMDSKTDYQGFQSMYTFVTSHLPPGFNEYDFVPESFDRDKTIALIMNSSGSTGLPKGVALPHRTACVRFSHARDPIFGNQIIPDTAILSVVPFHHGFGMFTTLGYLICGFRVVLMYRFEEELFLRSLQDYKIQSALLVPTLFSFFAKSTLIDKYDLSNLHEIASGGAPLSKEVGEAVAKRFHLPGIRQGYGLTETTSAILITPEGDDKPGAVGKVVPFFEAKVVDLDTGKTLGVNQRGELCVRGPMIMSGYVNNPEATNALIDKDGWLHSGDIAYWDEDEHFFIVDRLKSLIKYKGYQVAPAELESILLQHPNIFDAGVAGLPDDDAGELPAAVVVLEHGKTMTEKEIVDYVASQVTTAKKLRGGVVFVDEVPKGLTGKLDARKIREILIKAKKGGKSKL
Description: GSK_PKIS: Inhibition of Firefly Luciferase (Data from PubChem: AID 652016) [NIH NCATS]

Consider `CCn1c(-c2nonc2N)nc2c(C#CC(C)(C)O)ncc(OCC3CCNCC3)c21.O=C(O)C(F)(F)F` [GSK-554170A], for which the AC50 entry in test [1] and in test [2] was “Phenotype: Inactive; Curve_Description: None” throughout.
With `CCn1c(-c2nonc2N)nc2c(C#CCN)ncc(OCCCN)c21.O=C(O)C(F)(F)F` [GSK-561866B], the AC50 in test [1] (read-out: AC50) was 23.1 µM; in test [2], “Phenotype: Inactive; Curve_Description: None”.
In the same order, the values of `C[C@@H](Oc1cc(-n2cnc3ccc(OCC4CCN(C)CC4)cc32)sc1C(N)=O)c1ccccc1Cl` [GSK-571989A] are 20.6 µM and “Phenotype: Inactive; Curve_Description: None”.
For `C[C@@H](Oc1cc(-n2cnc3ccc(OC4CCN(C)CC4)cc32)sc1C(N)=O)c1ccccc1Cl` [GSK-579289A], in that order: 20.6 µM and “Phenotype: Inactive; Curve_Description: None”.
As to `CS(=O)(=O)Nc1ccc(-c2cc(-c3ccccc3)cc(C(N)=O)c2N)cc1` [GSK-586581A], the AC50 result in test [1] and in test [2] was “Phenotype: Inactive; Curve_Description: None” each time.
Consider `COc1ccc(-c2ccncc2)cc1C(N)=O` [GSK-605714A], for which the AC50 result in test [1] and in test [2] was “Phenotype: Inactive; Curve_Description: None” throughout.
Regarding `CCn1c(-c2nonc2N)nc2c(C#CC(C)(C)O)ncc(OC[C@@H]3CCCN3)c21.O=C(O)C(F)(F)F` [GSK-614526A], the AC50 in test [1] (read-out: AC50) was 18.3 µM; in test [2], “Phenotype: Inactive; Curve_Description: None”.
Turning to `CCn1c(-c2nonc2N)nc2c(C#CC(C)(C)O)ncc(OC3CCNCC3)c21.O=C(O)C(F)(F)F` [GSK-619487A], the AC50 entry in test [1] and in test [2] was “Phenotype: Inactive; Curve_Description: None” in each case.
In the case of `NC(=O)c1cc(-c2ccc(F)cc2)cc(-c2ccncc2)c1N` [GSK-620503A], the AC50 entry in test [1] and in test [2] was “Phenotype: Inactive; Curve_Description: None” throughout.
Take `NC(=O)c1cc(-c2ccncc2)cc(-c2ccccc2)c1N` [GSK-625137A]: the AC50 result in test [1] is “Phenotype: Inactive; Curve_Description: None”; in test [2] (read-out: AC50), 41.1 µM.
With `CNC(=O)c1cc(-c2ccc(F)cc2)cc(-c2ccc(S(=O)(=O)N3CCCC3)cc2)c1N` [GSK-635416A], the AC50 result in test [1] was “Phenotype: Activator; Curve_Description: None”; in test [2] it was “Phenotype: Inactive; Curve_Description: None”.
As for `COc1c(C(N)=O)cc(-c2ccc(Cl)cc2)cc1-c1ccc(S(N)(=O)=O)cc1` [GSK-711701A], the AC50 entry was “Phenotype: Inactive; Curve_Description: None” in test [1] and 29.1 µM in test [2] (read-out: AC50).
Regarding `CCn1cc(-c2ccnc3[nH]ccc23)c(-c2cccc(NC(=O)Nc3ccc(OCc4ccccc4)cc3)c2)n1` [GSK-718429A], the half-maximal activity concentration (AC50) result in test [1] and in test [2] was “Phenotype: Inactive; Curve_Description: None” throughout.
Take `CCn1c(-c2nonc2N)nc2c(C#CC(C)(C)O)nc(OC[C@@H](N)c3ccccc3)cc21` [GSK-938890A]: the AC50 was 29.1 µM in test [1] (read-out: AC50) and “Phenotype: Inactive; Curve_Description: None” in test [2].
In the same order, the values of `CCn1c(-c2nonc2N)nc2c(C#CC(C)(C)O)nc(OC[C@H](N)c3ccccc3)cc21` [GSK-943949A] are 29.1 µM and “Phenotype: Inactive; Curve_Description: None”.
In the same order, the values of `CCn1c(-c2nonc2N)nc2c(C#CC(C)(C)O)nc(OCCNC)cc21.Cl` [GSK-949675A] are 20.6 µM and “Phenotype: Inactive; Curve_Description: None”.
For `NS(=O)(=O)c1ccc(-c2cc3ccncc3cc2OCc2ccccc2)cc1` [GSK-953913A], in that order: 5.8 µM and “Phenotype: Inactive; Curve_Description: None”.
Turning to `Fc1cccc(COc2ccc(Nc3ncnc4sc(-c5ccco5)cc34)cc2Cl)c1` [GSK-969786A], the AC50 result in test [1] and in test [2] was “Phenotype: Inactive; Curve_Description: None” throughout.
With `C[C@@H](Oc1cc(-n2cnc3ccc(OC[C@@H](O)CO)cc32)sc1C(N)=O)c1ccccc1Cl` [GSK-978744A], the concentration at half-maximal activity (AC50) result in test [1] and in test [2] was “Phenotype: Inactive; Curve_Description: None” each time.
With `NS(=O)(=O)c1cccc(-c2cc3ccncc3cc2OCc2ccccc2)c1` [GSK-980961A], the AC50 in test [1] (read-out: AC50) was 25.9 µM; in test [2] it was “Phenotype: Inactive; Curve_Description: None”.
In the same order, the values of `CCCN1CCC=C(c2ccc(Nc3nc(Nc4ccccc4C(N)=O)c4cc[nH]c4n3)c(C)c2)C1` [GSK-994854A] are 46.1 µM and “Phenotype: Inactive; Curve_Description: None”.
As for `CCn1c(-c2nonc2N)nc2c(C#CC(C)(C)O)nc(CN3CCCC3)cc21` [GSK-1000163A], the AC50 entry in test [1] and in test [2] was “Phenotype: Inactive; Curve_Description: None” each time.
Take `CCn1c(-c2nonc2N)nc2c(C#CC(C)(C)O)nc(O[C@@H](CN)c3ccccc3)cc21.O=C(O)C(F)(F)F` [GSK-1007102B]: the AC50 in test [1] (read-out: AC50) was 29.1 µM; in test [2] it was “Phenotype: Inactive; Curve_Description: None”.
As for `NC(=O)c1sc(-n2cnc3ccccc32)cc1OCc1ccccc1Br` [GSK-1023156A], the AC50 in test [1] (read-out: AC50) is 25.9 µM; in test [2], “Phenotype: Inactive; Curve_Description: None”.
On to `COC(=O)c1sc(-n2cnc3cc(OC)c(OC)cc32)cc1OCc1ccccc1C(F)(F)F` [GSK-1030058A], for which the AC50 result in test [1] and in test [2] was “Phenotype: Inactive; Curve_Description: None” in each case.
As to `COc1cc2ncn(-c3cc(OCc4ccccc4C(F)(F)F)c(C(C)=O)s3)c2cc1OC` [GSK-1030059A], the AC50 result in test [1] and in test [2] was “Phenotype: Inactive; Curve_Description: None” each time.
Consider `CNC(=O)c1sc(-n2cnc3cc(OC)c(OC)cc32)cc1OCc1ccccc1C(F)(F)F` [GSK-1030061A], for which the concentration at half-maximal activity (AC50) result in test [1] and in test [2] was “Phenotype: Inactive; Curve_Description: None” each time.
With `COc1cc2ncn(-c3cc(OCc4ccccc4C(F)(F)F)c(C(=O)N(C)C)s3)c2cc1OC` [GSK-1030062A], the AC50 is 23.1 µM in test [1] (read-out: AC50) and “Phenotype: Inactive; Curve_Description: None” in test [2].
Turning to `CCCN1CCCC(c2ccc(Nc3nc(Nc4cc(F)ccc4C(N)=O)c4cc[nH]c4n3)c(OC)c2)C1` (configuration not stated) [GSK-1173862A], the concentration at half-maximal activity (AC50) in test [1] (read-out: AC50) was 32.6 µM; in test [2], “Phenotype: Inactive; Curve_Description: None”.
On to `COc1cc(N2CCN(C(C)C)CC2)ccc1Nc1nc(Nc2ccc(F)cc2C(N)=O)c2cc[nH]c2n1` [GSK-1220512A], for which the AC50 was 20.6 µM in test [1] (read-out: AC50) and 25.9 µM in test [2] (read-out: AC50).
On to `CCCN1CCC(c2ccc(Nc3nc(Nc4cc(F)ccc4C(N)=O)c4cc[nH]c4n3)c(OC)c2)CC1` [GSK-1326255A], for which the AC50 in test [1] (read-out: AC50) was 18.3 µM; in test [2], “Phenotype: Inactive; Curve_Description: None”.
With `COc1cc(N2CCN(C(C)C)CC2)ccc1Nc1nc(Nc2ccc(F)cc2C(=O)NC[C@@H](O)CO)c2cc[nH]c2n1` [GSK-1392956A], the AC50 result in test [1] and in test [2] was “Phenotype: Inactive; Curve_Description: None” each time.
Consider `COc1cc(N2CCN(C(C)C)CC2)ccc1Nc1nc(Nc2cccc3ncccc23)c2cc[nH]c2n1` [GSK-1511931A], for which the half-maximal activity concentration (AC50) was 18.3 µM in test [1] (read-out: AC50) and 25.9 µM in test [2] (read-out: AC50).
As for `CCCN1CCC(Oc2cc(Nc3nc(Nc4cccc(F)c4C(N)=O)c4cc[nH]c4n3)c(OC)cc2Cl)CC1` [GSK-1713088A], the figures for the AC50 entry in test [1] and in test [2] (read-out: AC50) were “Phenotype: Activator; Curve_Description: None” and 0.291 µM, respectively.
`COc1cc2c(cc1Nc1nc(Nc3cccc(F)c3C(N)=O)c3cc[nH]c3n1)N(C(=O)CN1CCN(C(C)C)CC1)CC2` [GSK-1751853A]: the AC50 in test [1] (read-out: AC50) was 36.6 µM; in test [2], “Phenotype: Inactive; Curve_Description: None”.
On to `COc1cc(N2CCN(C(C)C)CC2)ccc1Nc1nc(Nc2cccc(F)c2C(=O)O)c2cc[nH]c2n1` [GSK-1819799A], for which the AC50 result in test [1] and in test [2] was “Phenotype: Inactive; Curve_Description: None” throughout.
With `COc1cc2c(cc1Nc1nc(Nc3ccsc3C(N)=O)c3cc[nH]c3n1)N(C(=O)CN(C)C)CCC2` [GSK-2110236A], the AC50 was 46.1 µM in test [1] (read-out: AC50) and “Phenotype: Inactive; Curve_Description: None” in test [2].
Turning to `COc1cc2c(cc1Nc1nc(Nc3ccsc3C(N)=O)c3cc[nH]c3n1)N(C(=O)CN(C)C)CCC2(C)C` [GSK-2163632A], the concentration at half-maximal activity (AC50) result in test [1] and in test [2] was “Phenotype: Inactive; Curve_Description: None” in each case.
Take `COc1cc2c(cc1Nc1nc(N3CCc4ccccc43)c3cc[nH]c3n1)N(C(=O)CN(C)C)CC2` [GSK-2186269A]: the AC50 in test [1] (read-out: AC50) is 23.1 µM; in test [2], “Phenotype: Inactive; Curve_Description: None”.
With `COc1cc(C)c(NC(=O)CN(C)C)cc1Nc1nc(Nc2cccc(F)c2C(N)=O)c2cc[nH]c2n1` [GSK-2213727A], the AC50 result in test [1] and in test [2] was “Phenotype: Inactive; Curve_Description: None” throughout.
As for `COc1cc(C)c(N(C)C(=O)CN(C)C)cc1Nc1nc(Nc2cccc(F)c2C(N)=O)c2cc[nH]c2n1` [GSK-2219385A], the AC50 entry in test [1] and in test [2] was “Phenotype: Inactive; Curve_Description: None” throughout.

For the origin of these results see ChEMBL document CHEMBL2303647, “Data associated with the publication PLoS ONE, 8(3), e57888, (2013) PMID: 23505445. Compounds: GSK PKIS; Assays: NIH NCATS”.
